Values joined by “and” are separate entries in the source; they are usually repeats but may differ in a detail not shown here. Equal entries are not always repeated.
Test: molar heat capacity at constant pressure
Settings: 101.33 kPa, Crystal, Small (less than 1 g) adiabatic calorimetry

O=C(O)c1cccnc1 [3-carboxylpyridine]
Settings | molar heat capacity at constant pressure
1 K | 0.0015 J/K/mol
2 K | 0.0121 J/K/mol
3 K | 0.0409 J/K/mol
4 K | 0.0968 J/K/mol
5 K | 0.1891 J/K/mol
5.3 K | 0.2521 J/K/mol
5.53 K | 0.2833 J/K/mol
5.71 K | 0.3119 J/K/mol
5.9 K | 0.3323 J/K/mol
6 K | 0.3359 J/K/mol
6.07 K | 0.3625 J/K/mol
6.23 K | 0.3927 J/K/mol
6.39 K | 0.3921 J/K/mol
6.55 K | 0.4232 J/K/mol
6.7 K | 0.4579 J/K/mol
6.86 K | 0.5025 J/K/mol
7 K | 0.5397 J/K/mol
7.03 K | 0.5557 J/K/mol
7.19 K | 0.5983 J/K/mol
7.36 K | 0.6211 J/K/mol
7.52 K | 0.6706 J/K/mol
7.69 K | 0.6993 J/K/mol
7.84 K | 0.7188 J/K/mol
8 K | 0.7924 J/K/mol and 0.8151 J/K/mol
8.17 K | 0.8389 J/K/mol
8.34 K | 0.8744 J/K/mol
8.51 K | 0.9394 J/K/mol
8.68 K | 1.001 J/K/mol
8.86 K | 1.063 J/K/mol
9 K | 1.099 J/K/mol
9.03 K | 1.093 J/K/mol
9.21 K | 1.135 J/K/mol
9.38 K | 1.246 J/K/mol
9.56 K | 1.315 J/K/mol
9.73 K | 1.428 J/K/mol
9.92 K | 1.479 J/K/mol
10 K | 1.48 J/K/mol
10.17 K | 1.542 J/K/mol
10.5 K | 1.674 J/K/mol
10.82 K | 1.86 J/K/mol
11.15 K | 2.012 J/K/mol
11.48 K | 2.15 J/K/mol
11.83 K | 2.356 J/K/mol
12.19 K | 2.553 J/K/mol
12.55 K | 2.742 J/K/mol
12.92 K | 2.969 J/K/mol
13.29 K | 3.19 J/K/mol
13.67 K | 3.425 J/K/mol
14.06 K | 3.628 J/K/mol
14.45 K | 3.87 J/K/mol
14.84 K | 4.121 J/K/mol
15 K | 4.221 J/K/mol
15.23 K | 4.365 J/K/mol
15.63 K | 4.629 J/K/mol
16.04 K | 4.894 J/K/mol
16.44 K | 5.19 J/K/mol
16.85 K | 5.494 J/K/mol
17.27 K | 5.794 J/K/mol
17.67 K | 6.094 J/K/mol
18.09 K | 6.421 J/K/mol
18.52 K | 6.77 J/K/mol
18.95 K | 7.125 J/K/mol
19.38 K | 7.466 J/K/mol
19.82 K | 7.809 J/K/mol
20 K | 7.998 J/K/mol
20.68 K | 8.601 J/K/mol
22 K | 9.701 J/K/mol
23.36 K | 10.88 J/K/mol
24.74 K | 12.09 J/K/mol
25 K | 12.34 J/K/mol
26.14 K | 13.4 J/K/mol
27.57 K | 14.79 J/K/mol
29.02 K | 16.15 J/K/mol
30 K | 17.11 J/K/mol
30.49 K | 17.6 J/K/mol
31.97 K | 18.99 J/K/mol
33.48 K | 20.37 J/K/mol
34.99 K | 21.77 J/K/mol
35 K | 21.76 J/K/mol
36.53 K | 23.11 J/K/mol
38.07 K | 24.44 J/K/mol
39.63 K | 25.75 J/K/mol
40 K | 26.08 J/K/mol
41.2 K | 27.05 J/K/mol
42.78 K | 28.38 J/K/mol
44.36 K | 29.6 J/K/mol
45 K | 30.14 J/K/mol
45.95 K | 30.92 J/K/mol
47.56 K | 32.14 J/K/mol
49.17 K | 33.43 J/K/mol
50 K | 33.99 J/K/mol
50.79 K | 34.59 J/K/mol
52.41 K | 35.8 J/K/mol
54.04 K | 36.96 J/K/mol
55.68 K | 38.11 J/K/mol
57.33 K | 39.19 J/K/mol
58.97 K | 40.29 J/K/mol
60 K | 40.99 J/K/mol
60.63 K | 41.38 J/K/mol
62.28 K | 42.42 J/K/mol
63.94 K | 43.46 J/K/mol
65.61 K | 44.41 J/K/mol
67.28 K | 45.36 J/K/mol
68.95 K | 46.38 J/K/mol
70 K | 47 J/K/mol
70.62 K | 47.37 J/K/mol
72.71 K | 48.52 J/K/mol
75.22 K | 49.8 J/K/mol
77.73 K | 51.14 J/K/mol
80 K | 52.23 J/K/mol
80.25 K | 52.35 J/K/mol
80.98 K | 52.79 J/K/mol
82.78 K | 53.53 J/K/mol
84.21 K | 54.31 J/K/mol
85.31 K | 54.74 J/K/mol
86.73 K | 55.5 J/K/mol
87.85 K | 55.91 J/K/mol
89.25 K | 56.68 J/K/mol
90 K | 56.95 J/K/mol
90.39 K | 57.08 J/K/mol
91.78 K | 57.81 J/K/mol
94.31 K | 59 J/K/mol
96.84 K | 60.11 J/K/mol
99.38 K | 61.16 J/K/mol
100 K | 61.37 J/K/mol
101.92 K | 62.18 J/K/mol
104.47 K | 63.23 J/K/mol
107.02 K | 64.34 J/K/mol
109.57 K | 65.35 J/K/mol
110 K | 65.59 J/K/mol
112.12 K | 66.36 J/K/mol
114.68 K | 67.47 J/K/mol
117.24 K | 68.52 J/K/mol
119.81 K | 69.55 J/K/mol
120 K | 69.67 J/K/mol
122.39 K | 70.55 J/K/mol
124.96 K | 71.54 J/K/mol
127.53 K | 72.56 J/K/mol
130 K | 73.64 J/K/mol
130.1 K | 73.62 J/K/mol
132.68 K | 74.7 J/K/mol
135.26 K | 75.71 J/K/mol
137.83 K | 76.72 J/K/mol
140 K | 77.53 J/K/mol
140.41 K | 77.7 J/K/mol
142.99 K | 78.8 J/K/mol
145.58 K | 79.79 J/K/mol
148.16 K | 80.74 J/K/mol
150 K | 81.39 J/K/mol
150.75 K | 81.72 J/K/mol
153.33 K | 82.67 J/K/mol
155.92 K | 83.7 J/K/mol
158.51 K | 84.71 J/K/mol
160 K | 85.26 J/K/mol
161.1 K | 85.73 J/K/mol
163.71 K | 86.79 J/K/mol
166.31 K | 87.79 J/K/mol
168.9 K | 88.81 J/K/mol
170 K | 89.19 J/K/mol
171.49 K | 89.87 J/K/mol
174.09 K | 90.88 J/K/mol
176.68 K | 91.97 J/K/mol
179.28 K | 92.85 J/K/mol
180 K | 93.23 J/K/mol
181.87 K | 93.96 J/K/mol
184.47 K | 95.03 J/K/mol
187.07 K | 96.11 J/K/mol
189.66 K | 97.14 J/K/mol
190 K | 97.4 J/K/mol
192.26 K | 98.33 J/K/mol
194.86 K | 99.43 J/K/mol
197.45 K | 100.6 J/K/mol
200 K | 101.7 J/K/mol
200.05 K | 101.7 J/K/mol
202.65 K | 102.8 J/K/mol
205.28 K | 104.1 J/K/mol
207.88 K | 105.2 J/K/mol
210 K | 106.3 J/K/mol
210.48 K | 106.4 J/K/mol
213.09 K | 107.6 J/K/mol
215.69 K | 109 J/K/mol
218.3 K | 110 J/K/mol
220 K | 110.9 J/K/mol
220.91 K | 111.3 J/K/mol
223.52 K | 112.6 J/K/mol
226.13 K | 113.8 J/K/mol
228.74 K | 115.2 J/K/mol
230 K | 115.8 J/K/mol
231.36 K | 116.7 J/K/mol
233.98 K | 117.7 J/K/mol
236.59 K | 119.1 J/K/mol
239.21 K | 120.4 J/K/mol
240 K | 120.8 J/K/mol
241.83 K | 121.8 J/K/mol
244.45 K | 123.1 J/K/mol
247.11 K | 124.5 J/K/mol
249.74 K | 125.8 J/K/mol
250 K | 125.8 J/K/mol
252.36 K | 127.1 J/K/mol
254.98 K | 128.5 J/K/mol
257.61 K | 129.8 J/K/mol
260 K | 131 J/K/mol
260.24 K | 131.1 J/K/mol
262.86 K | 132.5 J/K/mol
265.49 K | 134 J/K/mol
268.12 K | 135.3 J/K/mol
270 K | 136.3 J/K/mol
270.75 K | 136.7 J/K/mol
273.15 K | 137.9 J/K/mol
273.38 K | 138.2 J/K/mol
276.01 K | 139.3 J/K/mol
278.63 K | 140.8 J/K/mol
280 K | 141.6 J/K/mol
281.26 K | 142.3 J/K/mol
283.88 K | 143.5 J/K/mol
286.5 K | 144.8 J/K/mol
289.15 K | 146.5 J/K/mol
290 K | 146.9 J/K/mol
291.77 K | 147.8 J/K/mol
294.38 K | 149.3 J/K/mol
296.99 K | 150.7 J/K/mol
298.15 K | 151.3 J/K/mol
299.59 K | 152.1 J/K/mol
300 K | 152.3 J/K/mol
302.64 K | 153.7 J/K/mol
306.07 K | 155.5 J/K/mol
309.49 K | 157.1 J/K/mol
310 K | 157.7 J/K/mol
312.9 K | 159 J/K/mol
316.3 K | 161.2 J/K/mol
319.71 K | 162.9 J/K/mol
320 K | 163.1 J/K/mol
323.11 K | 164.8 J/K/mol
326.5 K | 166.8 J/K/mol
329.88 K | 168.6 J/K/mol
330 K | 168.5 J/K/mol
333.26 K | 170.6 J/K/mol
336.64 K | 172.4 J/K/mol
340 K | 174 J/K/mol
343.36 K | 175.7 J/K/mol
346 K | 177.3 J/K/mol
346.71 K | 177.4 J/K/mol

Reference: the NIST ThermoML archive (doi:10.1016/j.tca.2015.01.012)
